The subject of one experiment is THP-1 cells. Description: TNFα generation assay. The format is cell-based, human. The note with it: Homo sapiens, THP-1, THP-1 cells; Table 22; read-out: IC50 in TNFα generation assay. The method in brief:
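Secreted TNFα in supernatant quantified by ELISA or AlphaLISA after 7 h culture on human IgG-coated wells (10 μg/ml coating). Cells were IFN-γ-differentiated THP-1 (10 ng/ml, 2 days), exposed to compound for 30 min at room temperature before plating.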

The target in experiment [1] is T1, glutathione S-transferase (GST)-fused full-length human Syk protein (Homo sapiens, UniProt P43405).
T1 construct: (GST)-fused full-length human Syk protein; GST (glutathione S-transferase); purchased Carna Biosciences
The experiment can be described thus: Syk enzyme assay. The format is biochemical. The note with it: Syk enzyme assay, Test Example 1; read-out: IC50 of Syk-inhibitory activity. A digest of the protocol:
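IC50 values come from a time-resolved FRET readout (615 and 665 nm) of substrate phosphorylation, measured after an EDTA stop and 1 h antibody binding. The kinase reaction ran 40 min at room temperature with 27 μM ATP and 0.4 μM biotin-peptide, following a 15 min compound preincubation with baculovirus-made GST-full-length human Syk.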

pIC50: −log10 of the molar value. Bounds are passed on as bounds.

For the molecule `CCOCCOCCn1cc2cc(Nc3nc(N[C@@H]4CCCC[C@@H]4N)c(F)cc3C(N)=O)ccc2n1` (relative stereo) [Example 004-095, 6-(cis-2-aminocyclohexylamino)-2-((2-(2-(2-ethoxyethoxy)ethyl)-2H-indazol-5-yl)amino)-5-fluoronicotinamide], the pIC50 is 6.70 to 6.89 in the experiment with THP-1 cells and greater than 8.00 in experiment [1].
Turning to `NC(=O)c1cc(F)c(N[C@@H]2CCCC[C@@H]2N)nc1Nc1cccnc1` (relative stereo) [Example 004-096, 6-(cis-2-aminocyclohexylamino)-5-fluoro-2-((pyridin-3-yl)amino)nicotinamide], the pIC50 with THP-1 cells was 6.89 to 7.19; in experiment [1] it was 7.30 to 8.00.
In the case of `NC(=O)c1cc(F)c(N[C@@H]2CCCC[C@@H]2N)nc1Nc1cncc(Cl)c1` (relative stereo) [Example 004-097, 6-(cis-2-aminocyclohexylamino)-2-((5-chloropyridin-3-yl)amino)-5-fluoronicotinamide], the pIC50 in the experiment on THP-1 cells was 6.89 to 7.19; in experiment [1], greater than 8.00.
Consider `NC(=O)c1cc(F)c(N[C@@H]2CCCC[C@@H]2N)nc1Nc1cncc(F)c1` (relative stereo) [Example 004-105, 6-(cis-2-aminocyclohexylamino)-5-fluoro-2-((5-fluoropyridin-3-yl)amino)nicotinamide], for which the pIC50 was 6.70 to 6.89 in the experiment with THP-1 cells and 7.30 to 8.00 in experiment [1].
Take `COCCOc1cccc(-c2cncc(Nc3nc(N[C@@H]4CCCC[C@@H]4N)c(F)cc3C(N)=O)c2)c1` (relative stereo) [Example 004-109, 6-(cis-2-aminocyclohexylamino)-5-fluoro-2-((5-(3-(2-methoxyethoxy)phenyl)pyridin-3-yl)-amino)nicotinamide]: the results for the pIC50 (in the experiment on THP-1 cells; in experiment [1]) were 6.70 to 6.89 and greater than 8.00, respectively.
The like results for `COc1cccc(-c2cncc(Nc3nc(N[C@@H]4CCCC[C@@H]4N)c(F)cc3C(N)=O)c2)c1` (relative stereo) [Example 004-113, 6-(cis-2-aminocyclohexylamino)-5-fluoro-2-((5-(3-methoxyphenyl)pyridin-3-yl)amino)-nicotinamide] were, in that order, 6.70 to 6.89 and greater than 8.00.
On to `COc1ccc(-c2cncc(Nc3nc(N[C@@H]4CCCC[C@@H]4N)c(F)cc3C(N)=O)c2)cc1` (relative stereo) [Example 004-114, 6-(cis-2-aminocyclohexylamino)-5-fluoro-2-((5-(4-methoxyphenyl)pyridin-3-yl)amino)-nicotinamide], for which the pIC50 is 6.89 to 7.19 in the experiment with THP-1 cells and greater than 8.00 in experiment [1].
The like results for `Cn1c(F)cc2cc(Nc3nc(N[C@@H]4CCCC[C@@H]4N)c(F)cc3C(N)=O)ccc21` (relative stereo) [Example 004-117, 6-(cis-2-aminocyclohexylamino)-5-fluoro-2-((2-fluoro-1-methyl-1H-indol-5-yl)amino)-nicotinamide] were, in that order, 6.70 to 6.89 and greater than 8.00.
The like results for `NC(=O)c1cc(F)c(N[C@@H]2CCCC[C@@H]2N)nc1Nc1cncc(-c2cnco2)c1` (relative stereo) [Example 004-118, 6-(cis-2-aminocyclohexylamino)-5-fluoro-2-((5-(oxazol-5-yl)pyridin-3-yl)amino)-nicotinamide] were, in that order, 6.89 to 7.19 and greater than 8.00.
As to `NC(=O)c1cc(F)c(N[C@@H]2CCCC[C@@H]2N)nc1Nc1cnc2cc(N3CCOCC3)ccc2c1` (relative stereo) [Example 004-123, 6-(cis-2-aminocyclohexylamino)-5-fluoro-2-((7-morpholinoquinolin-3-yl)amino)-nicotinamide], the pIC50 with THP-1 cells was 6.70 to 6.89; in experiment [1], greater than 8.00.
`NC(=O)c1cc(F)c(N[C@@H]2CCCC[C@@H]2N)nc1Nc1cnc2cc(N)ccc2c1` (relative stereo) [Example 004-125, 6-(cis-2-aminocyclohexylamino)-2-((7-aminoquinolin-3-yl)amino)-5-fluoronicotinamide]: the pIC50 in the experiment with THP-1 cells is 6.89 to 7.19; in experiment [1], greater than 8.00.
The like results for `COCCOc1ccc2cc(Nc3nc(N[C@@H]4CCCC[C@@H]4N)c(F)cc3C(N)=O)cnc2c1` (relative stereo) [Example 004-127, 6-(cis-2-aminocyclohexylamino)-5-fluoro-2-((7-(2-methoxyethoxy)quinolin-3-yl)amino)-nicotinamide] were, in that order, 6.70 to 6.89 and greater than 8.00.
The like results for `COc1ccc2cc(Nc3nc(N[C@@H]4CCCC[C@@H]4N)c(F)cc3C(N)=O)cnc2c1` (relative stereo) [Example 004-128, 6-(cis-2-aminocyclohexylamino)-5-fluoro-2-((7-methoxyquinolin-3-yl)amino)nicotinamide] were, in that order, 6.89 to 7.19 and greater than 8.00.
The like results for `NC(=O)c1cc(F)c(N[C@@H]2CCCC[C@@H]2N)nc1Nc1ccccc1` (relative stereo) [Example 004-129, 6-(cis-2-aminocyclohexylamino)-5-fluoro-2-(phenylamino)nicotinamide] were, in that order, 6.89 to 7.19 and greater than 8.00.
For the molecule `CC(=O)c1cncc(Nc2nc(N[C@@H]3CCCC[C@@H]3N)c(F)cc2C(N)=O)c1` (relative stereo) [Example 004-132, 2-((5-acetylpyridin-3-yl)amino)-6-(cis-2-aminocyclohexylamino)-5-fluoronicotinamide], the pIC50 is 6.89 to 7.19 in the experiment on THP-1 cells and 7.30 to 8.00 in experiment [1].
`NC(=O)c1cc(F)c(N[C@@H]2CCCC[C@@H]2N)nc1Nc1cncc(-c2ccno2)c1` (relative stereo) [Example 004-141, 6-(cis-2-aminocyclohexylamino)-5-fluoro-2-((5-(isoxazol-5-yl)pyridin-3-yl)amino)-nicotinamide]: the pIC50 was 6.89 to 7.19 in the experiment with THP-1 cells and greater than 8.00 in experiment [1].
The like results for `NC(=O)c1cc(F)c(N[C@@H]2CCCC[C@@H]2N)nc1Nc1cncc(-c2ccccc2F)c1` (relative stereo) [Example 004-143, 6-(cis-2-aminocyclohexylamino)-5-fluoro-2-((5-(2-fluorophenyl)pyridin-3-yl)amino)-nicotinamide] were, in that order, 6.89 to 7.19 and greater than 8.00.
As for `COc1ccccc1-c1cncc(Nc2nc(N[C@@H]3CCCC[C@@H]3N)c(F)cc2C(N)=O)c1` (relative stereo) [Example 004-149, 6-(cis-2-aminocyclohexylamino)-5-fluoro-2-((5-(2-methoxyphenyl)pyridin-3-yl)amino)-nicotinamide], the pIC50 is 6.70 to 6.89 with THP-1 cells and greater than 8.00 in experiment [1].
The like results for `NC(=O)c1cc(F)c(N[C@@H]2CCCC[C@@H]2N)nc1Nc1cccc2cnccc12` (relative stereo) [Example 004-159, 6-(cis-2-aminocyclohexylamino)-5-fluoro-2-((isoquinolin-5-yl)amino)nicotinamide] were, in that order, 6.89 to 7.19 and greater than 8.00.
The like results for `NC(=O)c1cc(F)c(N[C@@H]2CCCC[C@@H]2N)nc1Nc1cnc2c(c1)OCCO2` (relative stereo) [Example 004-161, 6-(cis-2-aminocyclohexylamino)-2-((2,3-dihydro-[1,4]dioxino[2,3-b]pyridin-7-yl)amino)-5-fluoronicotinamide] were, in that order, 6.70 to 6.89 and 7.30 to 8.00.
The like results for `NC(=O)c1cc(F)c(N[C@@H]2CCCC[C@@H]2N)nc1Nc1cnc2c(c1)CCC2` (relative stereo) [Example 004-162, 6-(cis-2-aminocyclohexylamino)-2-((6,7-dihydro-5H-cyclopenta[b]pyridin-3-yl)amino)-5-fluoronicotinamide] were, in that order, 6.70 to 6.89 and greater than 8.00.
Turning to `NC(=O)c1cc(F)c(N[C@@H]2CCCC[C@@H]2N)nc1Nc1ccc2cnccc2c1` (relative stereo) [Example 004-163, 6-(cis-2-aminocyclohexylamino)-5-fluoro-2-((isoquinolin-6-yl)amino)nicotinamide], the pIC50 was greater than 7.19 with THP-1 cells and greater than 8.00 in experiment [1].
The like results for `COc1nccc2cc(Nc3nc(N[C@@H]4CCCC[C@@H]4N)c(F)cc3C(N)=O)ccc12` (relative stereo) [Example 004-164, 6-(cis-2-aminocyclohexylamino)-5-fluoro-2-((1-methoxyisoquinolin-6-yl)amino)-nicotinamide] were, in that order, 6.70 to 6.89 and greater than 8.00.
The like results for `COCCOc1nccc2cc(Nc3nc(N[C@@H]4CCCC[C@@H]4N)c(F)cc3C(N)=O)ccc12` (relative stereo) [Example 004-168, 6-(cis-2-aminocyclohexylamino)-5-fluoro-2-((1-(2-methoxyethoxy)isoquinolin-6-yl)amino)-nicotinamide] were, in that order, 6.70 to 6.89 and greater than 8.00.
The like results for `NC(=O)c1cc(F)c(N[C@@H]2CCCC[C@@H]2N)nc1Nc1cncc(-c2ccc(F)cc2F)c1` (relative stereo) [Example 004-181, 6-(cis-2-aminocyclohexylamino)-2-((5-(2,4-difluorophenyl)pyridin-3-yl)amino)-5-fluoronicotinamide] were, in that order, 6.70 to 6.89 and greater than 8.00.
Turning to `COCc1cncc(Nc2nc(N[C@@H]3CCCC[C@@H]3N)c(F)cc2C(N)=O)c1` (relative stereo) [Example 004-188, 6-(cis-2-aminocyclohexylamino)-5-fluoro-2-((5-(methoxymethyl)pyridin-3-yl)amino)nicotinamide], the pIC50 with THP-1 cells is 6.89 to 7.19; in experiment [1], 7.30 to 8.00.
